For assay [1], the target named is human TRPML1 (Homo sapiens, UniProt Q9GZU1). Description: Fluorescent TRPML1 assay (Fluo4-AM calcium fluorescence, HEK-293 Trex cells). It counts as cell-based. On the procedure: (§1) HEK-293 Trex cells were stably transfected with a construct consisting of the human coding sequence for TRPML1 cloned into the tet-inducible plasmid pCDNA5 T/O. Mutations were introduced into the TRPML1 sequence to facilitate expression on the cell surface (Silvia Vergarajauregui, Rosa Puertollano Traffic. 2006 March; 7 (3): 337-353). Briefly, the cells are cultured in 150 mm round tissue culture dishes containing 20 mL of media. The day before the assay the cells are rinsed with DPBS —Ca—Mg and then treated briefly with Trypsin-EDTA. The Trypsin-EDTA is diluted with growth media, and cells are counted. 38×10^6 cells are re-plated into 150 mm round tissue culture dishes in media containing 0.5 ug/mL doxycycline to induce expression of hTRPML1.
(§2) The day of the experiment cells are lifted from the plates as above and collected by centrifugation. The cells are then suspended in dye loading buffer consisting of Ringer's solution supplemented with 0.1% Pluronic Acid and 1 micromolar Fluo4-AM dye. Cells are loaded for ˜60 minutes in the dark with occasional mixing. The cells are collected by centrifugation, the loading media aspirated, and the cells resuspended in 25 mL Ringer's solution and incubated ˜60 minutes in the dark. The cells are again collected by centrifugation, rinsed in Ringer's Solution and resuspended to 0.2×10^6 cells/mL in modified Ringer's solution containing 10 mM calcium.
(§3) Compounds are dissolved to a concentration of 10 millimolar with DMSO. Compound plates are created by dispensing compounds into 384 well black wall clear bottom plates (Greiner 781091). Positive and negative controls are included on each plate. Typically, different amounts of each compound are tested ranging from 100 nanoMoles (20 micromolar final concentration) decreasing in half-log steps to 31 picoMoles (6 nanomolar final concentration). Each concentration is typically tested in triplicate.
(§4) 50 microliters of dye-loaded cells are dispensed into each well of the compound assay plate created above. The fluorescence in each well is then determined with an excitation wavelength of 480 nm and an emission wavelength of 540 nm using either a Molecular Devices SpectraMax multimode plate reader or a Hamamatsu FDSS/uCell plate imager.
(§5) The resulting fluorescence for each well is exported as an ascii file and loaded into our LIMS for analysis. The percent activity of each compound at each concentration is determined by comparison to the positive and negative control wells included in each plate.
(§6) EC50 values were calculated using a non-linear regression of Prism. In the table, “A” indicates an EC50 of less than 100 nM, “B” indicates an EC50 range from 100 nM to 500 nM; “C” indicates an EC50 range from 500 nM to 2 μM; and “D” indicates an EC50 greater than 2 μM.

For assay [2], the target named is T1, TRPML3 (Homo sapiens, UniProt Q8TDD5).
T1 construct: expressed in transfected cells
T1 sequence (Q8TDD5 1-553): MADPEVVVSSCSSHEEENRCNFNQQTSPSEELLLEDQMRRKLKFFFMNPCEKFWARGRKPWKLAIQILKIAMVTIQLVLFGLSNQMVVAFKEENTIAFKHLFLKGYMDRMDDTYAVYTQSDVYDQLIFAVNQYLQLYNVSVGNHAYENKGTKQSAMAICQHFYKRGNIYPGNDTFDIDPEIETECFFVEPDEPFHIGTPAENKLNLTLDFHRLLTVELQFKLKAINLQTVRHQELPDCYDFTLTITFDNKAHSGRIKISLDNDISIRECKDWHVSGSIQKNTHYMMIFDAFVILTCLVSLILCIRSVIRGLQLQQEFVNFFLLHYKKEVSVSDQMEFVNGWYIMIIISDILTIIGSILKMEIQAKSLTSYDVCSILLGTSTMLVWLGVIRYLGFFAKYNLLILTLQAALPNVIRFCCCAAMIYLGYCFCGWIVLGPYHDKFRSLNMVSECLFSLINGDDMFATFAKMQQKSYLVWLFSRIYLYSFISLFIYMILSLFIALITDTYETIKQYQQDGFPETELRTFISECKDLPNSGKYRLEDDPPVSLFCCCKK
Nature of the assay: Fluorescent TRPML3 assay (as for TRPML1). In kind it is cell-based. On the procedure:
as §1, §2, §3, §4, §5
Assays for TRPML2 and TRPML3 were performed as above for TRPML1, by substituting the appropriate TRPML2 or TRPML3 subtype for the TRPML1.
as §6

Sequence of human TRPML1 (Q9GZU1 whole entry L15A/L16A/L577A/L578A, form open): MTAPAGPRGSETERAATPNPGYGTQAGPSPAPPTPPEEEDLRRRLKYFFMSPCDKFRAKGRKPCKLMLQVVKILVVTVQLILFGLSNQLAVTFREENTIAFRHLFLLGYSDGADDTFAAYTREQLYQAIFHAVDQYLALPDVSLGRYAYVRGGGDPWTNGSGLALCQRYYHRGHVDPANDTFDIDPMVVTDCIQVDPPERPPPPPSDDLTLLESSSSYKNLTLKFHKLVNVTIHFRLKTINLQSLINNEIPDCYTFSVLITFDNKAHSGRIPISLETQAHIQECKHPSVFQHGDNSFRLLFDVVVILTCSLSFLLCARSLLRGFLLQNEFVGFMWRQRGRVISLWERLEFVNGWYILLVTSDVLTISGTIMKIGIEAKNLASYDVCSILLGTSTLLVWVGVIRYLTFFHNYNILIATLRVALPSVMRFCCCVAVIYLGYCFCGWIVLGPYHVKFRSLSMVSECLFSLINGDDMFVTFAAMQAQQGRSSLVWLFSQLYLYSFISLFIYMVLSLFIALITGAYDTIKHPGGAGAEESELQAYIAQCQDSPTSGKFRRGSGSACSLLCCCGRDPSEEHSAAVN

With `C[C@H]1CN(C(=O)C2(C)CC2)CCN1c1ncnc2c1c(-c1ccccn1)cn2-c1cc(C#N)ccn1` [Compound 127, (S)-2-(4-(2-methyl-4-(1-methylcyclopropane-1-carbonyl)piperazin-1-yl)-5-(pyridin-2-yl)-7H-pyrrolo[2,3-d]pyrimidin-7-yl)isonicotinonitrile], the EC50 in assay [1] (Table 3, compounds 101-177) is 500 to 2000 nM; in assay [2] (Table 3, compounds 101-177), greater than 2000 nM.

As to `C[C@@H]1CN(c2ncnc3c2c(C2CCC2)cn3-c2cccc(Cl)c2)[C@@H](C)CN1C(=O)C1(F)CC1` [Compound 254, ((2R,5S)-4-(7-(3-chlorophenyl)-5-cyclobutyl-7H-pyrrolo[2,3-d]pyrimidin-4-yl)-2,5-dimethylpiperazin-1-yl)(1-fluorocyclopropyl)methanone], the EC50 in assay [1] (Table 3, compounds 201-283) was in the range of 500 to 2000 nM; in assay [2] (Table 3, compounds 201-283) it was 500 to 2000 nM.

Take `CCCN(CC)c1cn(-c2cc(C#N)ccn2)c2ncnc(N3CCN(C(=O)C(C)(C)C)C[C@@H]3C)c12` [Compound 164]: the EC50 was less than 100 nM in assay [1] (Table 3, compounds 101-177) and less than 100 nM in assay [2] (Table 3, compounds 101-177).

On to `CC(C)C(=O)N1CCN(c2ncnc3c2c(-c2ccccc2)cn3-c2cc(C#N)ccn2)C[C@H]1C` [Compound 119, (R)-2-(4-(4-isobutyryl-3-methylpiperazin-1-yl)-5-phenyl-7H-pyrrolo[2,3-d]pyrimidin-7-yl)isonicotinonitrile], for which the EC50 in assay [1] (Table 3, compounds 101-177) is less than 100 nM; in assay [2] (Table 3, compounds 101-177), less than 100 nM.

With `COC1(C(=O)N2CCN(c3ncnc4c3c(-c3ccccc3F)cn4-c3cc(C#N)ccn3)[C@@H](C)C2)CC1` [Compound 243, (S)-2-(5-(2-fluorophenyl)-4-(4-(1-methoxycyclopropane-1-carbonyl)-2-methylpiperazin-1-yl)-7H-pyrrolo[2,3-d]pyrimidin-7-yl)isonicotinonitrile], the EC50 is less than 100 nM in assay [1] (Table 3, compounds 201-283) and 100 to 500 nM in assay [2] (Table 3, compounds 201-283).

For the molecule `CCCC(=O)N1CCN(c2ncnc3c2c(N2CCC2)cn3-c2cc(C#N)ccn2)C[C@H]1C` [Compound 274, (R)-2-(5-(azetidin-1-yl)-4-(4-butyryl-3-methylpiperazin-1-yl)-7H-pyrrolo[2,3-d]pyrimidin-7-yl)isonicotinonitrile], the EC50 in assay [1] (Table 3, compounds 201-283) was less than 100 nM; in assay [2] (Table 3, compounds 201-283) it was less than 100 nM.

For `CC(C)C(=O)N1CCN(c2ncnc3c2c(-c2ccccn2)cn3-c2cc(C#N)ccn2)[C@@H](C)C1` [Compound 116, (S)-2-(4-(4-isobutyryl-2-methylpiperazin-1-yl)-5-(pyridin-2-yl)-7H-pyrrolo[2,3-d]pyrimidin-7-yl)isonicotinonitrile], the EC50 in assay [1] (Table 3, compounds 101-177) lay within 500 to 2000 nM; in assay [2] (Table 3, compounds 101-177) it was 500 to 2000 nM.

In the case of `C[C@H]1CN(C(=O)C(C)(C)O)CCN1c1ncnc2c1c(N1CCC1)cn2-c1cc(C#N)ccn1` [Compound 162, (S)-2-(5-(azetidin-1-yl)-4-(4-(2-hydroxy-2-methylpropanoyl)-2-methylpiperazin-1-yl)-7H-pyrrolo[2,3-d]pyrimidin-7-yl)isonicotinonitrile], the EC50 in assay [1] (Table 3, compounds 101-177) was in the range of 100 to 500 nM; in assay [2] (Table 3, compounds 101-177) it was 500 to 2000 nM.

For `CC(C)C(=O)N1CCN(c2ncnc3c2c(-c2ccccc2F)cn3-c2ncc(C#N)s2)[C@@H](C)C1` [Compound 142, (S)-2-(5-(2-fluorophenyl)-4-(4-isobutyryl-2-methylpiperazin-1-yl)-7H-pyrrolo[2,3-d]pyrimidin-7-yl) thiazole-5-carbonitrile], the EC50 in assay [1] (Table 3, compounds 101-177) lay in the range of 100 to 500 nM; in assay [2] (Table 3, compounds 101-177), 100 to 500 nM.

For the molecule `CC(C)C(=O)N1C[C@H](C)N(c2ncnc3c2c(-c2ccccc2F)cn3-c2cc(F)ccn2)C[C@H]1C` [Compound 167, 1-((2R,5S)-4-(5-(2-fluorophenyl)-7-(4-fluoropyridin-2-yl)-7H-pyrrolo[2,3-d]pyrimidin-4-yl)-2,5-dimethylpiperazin-1-yl)-2-methylpropan-1-one], the EC50 in assay [1] (Table 3, compounds 101-177) is less than 100 nM; in assay [2] (Table 3, compounds 101-177) it was less than 100 nM.

Take `CC(C)C(=O)N1CCN(c2ncnc3c2c(N2CCCC2)cn3-c2cc(C#N)ccn2)C[C@H]1C` [Compound 148, (R)-2-(4-(4-isobutyryl-3-methylpiperazin-1-yl)-5-(pyrrolidin-1-yl)-7H-pyrrolo[2,3-d]pyrimidin-7-yl)isonicotinonitrile]: the EC50 in assay [1] (Table 3, compounds 101-177) lay within 500 to 2000 nM; in assay [2] (Table 3, compounds 101-177) it was 100 to 500 nM.

`CC(C)C(=O)N1CCN(c2ncnc3c2c(-c2ccccc2F)cn3-c2cc(C#N)cnn2)[C@@H](C)C1` [Compound 171, (S)-6-(5-(2-fluorophenyl)-4-(4-isobutyryl-2-methylpiperazin-1-yl)-7H-pyrrolo[2,3-d]pyrimidin-7-yl)pyridazine-4-carbonitrile]: the EC50 in assay [1] (Table 3, compounds 101-177) lay in the range of 100 to 500 nM; in assay [2] (Table 3, compounds 101-177) it was 100 to 500 nM.

With `C[C@@H]1CN(c2nccc3c2c(N2CCC2)cn3-c2cccc(F)c2)[C@@H](C)CN1C(=O)C(C)(C)C` [Compound 226, 1-((2R,5S)-4-(3-(azetidin-1-yl)-1-(3-fluorophenyl)-1H-pyrrolo[3,2-c]pyridin-4-yl)-2,5-dimethylpiperazin-1-yl)-2,2-dimethylpropan-1-one], the EC50 is less than 100 nM in assay [1] (Table 3, compounds 201-283) and less than 100 nM in assay [2] (Table 3, compounds 201-283).

Take `Cc1nccnc1-c1cn(-c2cc(C#N)ccn2)c2ncnc(N3C[C@@H](C)N(C(=O)C(C)C)C[C@@H]3C)c12` [Compound 172, 2-(4-((2S,5R)-4-isobutyryl-2,5-dimethylpiperazin-1-yl)-5-(3-methylpyrazin-2-yl)-7H-pyrrolo[2,3-d]pyrimidin-7-yl)isonicotinonitrile]: the EC50 in assay [1] (Table 3, compounds 101-177) is 500 to 2000 nM; in assay [2] (Table 3, compounds 101-177), greater than 2000 nM.

With `COC(C)(C)C(=O)N1CCN(c2ncnc3c2c(C2CC2)cn3-c2cc(C#N)ccn2)[C@@H](C)C1` [Compound 241, (S)-2-(5-cyclopropyl-4-(4-(2-methoxy-2-methylpropanoyl)-2-methylpiperazin-1-yl)-7H-pyrrolo[2,3-d]pyrimidin-7-yl)isonicotinonitrile], the EC50 in assay [1] (Table 3, compounds 201-283) is less than 100 nM; in assay [2] (Table 3, compounds 201-283), less than 100 nM.

`C[C@H]1CN(C(=O)C(C)(C)F)CCN1c1ncnc2c1c(-c1ccccc1F)cn2-c1cc(C#N)ccn1` [Compound 125, (S)-2-(4-(4-(2-fluoro-2-methylpropanoyl)-2-methylpiperazin-1-yl)-5-(2-fluorophenyl)-7H-pyrrolo[2,3-d]pyrimidin-7-yl)isonicotinonitrile]: the EC50 in assay [1] (Table 3, compounds 101-177) is less than 100 nM; in assay [2] (Table 3, compounds 101-177), less than 100 nM.

With `C[C@@H]1CN(c2ncnc3c2c(C2CC2)cn3-c2cc(C#N)ccn2)CCN1C(=O)C1(F)CC1` [Compound 129, (R)-2-(5-cyclopropyl-4-(4-(1-fluorocyclopropane-1-carbonyl)-3-methylpiperazin-1-yl)-7H-pyrrolo[2,3-d]pyrimidin-7-yl)isonicotinonitrile], the EC50 in assay [1] (Table 3, compounds 101-177) was less than 100 nM; in assay [2] (Table 3, compounds 101-177), 100 to 500 nM.

As for `C[C@@H]1CN(c2ncnc3c2c(C2CCC2)cn3-c2cc(C#N)ccn2)[C@@H](C)CN1C(=O)C1(F)CC1` [Compound 236, 2-(5-cyclobutyl-4-((2S,5R)-4-(1-fluorocyclopropane-1-carbonyl)-2,5-dimethylpiperazin-1-yl)-7H-pyrrolo[2,3-d]pyrimidin-7-yl)isonicotinonitrile], the EC50 in assay [1] (Table 3, compounds 201-283) was less than 100 nM; in assay [2] (Table 3, compounds 201-283) it was less than 100 nM.

`C[C@H]1CN(C(=O)C2CC2)CCN1c1ncnc2c1c(-c1ccccc1F)cn2-c1cc(C#N)ccn1` [Compound 105, (S)-2-(4-(4-(cyclopropanecarbonyl)-2-methylpiperazin-1-yl)-5-(2-fluorophenyl)-7H-pyrrolo[2,3-d]pyrimidin-7-yl)isonicotinonitrile]: the EC50 is less than 100 nM in assay [1] (Table 3, compounds 101-177) and less than 100 nM in assay [2] (Table 3, compounds 101-177).

Source of the values: patent US20240398812A1 (Caraway Therapeutics, Inc., priority 2021, published 2024).
